Results: US20130096160A1, “ARYLTHIAZOLYL PIPERIDINES AND RELATED COMPOUNDS AS MODULATORS OF SURVIVAL MOTOR NEURON (SMN) PROTEIN PRODUCTION” (Secretary, Department of Health and Human Services, priority 2010, published 2013)

Tested on: SMN2-luciferase reporter
Experiment: SMN2-luciferase reporter qHTS assay
Format: cell-based, human
Parameters: key to Curve Class: A curve class of 1.1 is a full agonist/antagonist; a curve class of 4 indicates the compound is inactive
Conditions: for Curve Class: agonist/antagonist character of the concentration-response, lower values = more significant concentration-response; for Increased SMN2 activity: percent increase (or decrease) in SMN2 levels compared to control in which no test compound is added
Text: A cell-based quantitative high throughput screening (qHTS) assay is used to identify compounds able to increase SMN production. The assay uses a SMN2-luciferase reporter to determine if exon 7 of the SMN gene is expressed, which correlates with increased full-length SMN production from the SMN2 gene. As controls, a homologue SMN1-luciferase reporter cell line looks for variations in expression of the SMN1 gene and a cell line with just the luciferase reporter looks at the capacity of the compounds to inhibit luciferase. In addition, increments in SMN production by lead compounds were confirmed by Western-Blot analysis using SMA patient fibroblasts.
For the qHTS assay, concentration-response profiles are generated at the primary-screen level for each library compound to minimize the number of false positives. A dilution series consisting of seven points separated by five-fold concentration differences is prepared for each compound, yielding a concentration series that spans a range of about four orders of magnitude, for example from a high concentration of 50 micromolar to a low concentration of 3.2 nanomolar and providing adequate data for fitting to a Hill equation. For the assay, the SMN2 reporter cell line was plated at a density of ˜2000 cells/well in complete media (phenol red free DMEM, 10% detacl calf serum, and 1× pen/strep), in 1536 well white solid bottom tissue culture treated plates (Greiner). Cells were allowed to adhere and recover at 37 C in 5% CO2 for 10-12 hours. Compounds were added to the plates by a Pintool (Kalypsys) at a volume of 23 nl/well. Cells were incubated in the presence of compounds for 2 days at 37 C in 5% CO2. In order to quantify luciferase reporter levels, 3 ul/well of OneGlo (Promega) was added to each well and incubated at room temperature for 10 minutes. Luminescence from the reporter in each well is measured using a Viewlux CCD based imager (Perkin Elmer) with an integration time of 30 seconds and a binning of 2× in luminescence mode. Sodium butyrate was used as the positive control compound for luciferase induction and a column of 32 wells of 9.2 mM compound on each plate was used to monitor assay performance.
The SMN reporters used herein are modified from those previously described (M. L. Zhang, C. L. Lorson, E. J. Androphy and J. Zhou, An in vivo reporter system for measuring increased inclusion of exon 7 in SMN2 mRNA: potential therapy of SMA, Gene Ther 8 (2001), pp. 1532-1538.)
The sequence of the SMN1 reporter vector used herein is given in SEQ ID NO.:1, while that of the SMN2 reporter vector is given in SEQ ID NO.:2.
Each of the SMN reporters is constructed from three separate DNA fragments: (1) an SMN promotor sequence from the transcriptional reporter p 4.0T (SMN1) or p3.4C (SMN2) described in Monani, et al. Biochimica et Biophysica Acta 1445 (1999) 330-336; (2) a modification of the firefly luciferase splicing reporter for SMN1 or SMN2 described by Zhang et al; and (3) a 744 bp SMN cDNA fragment.
The 3.7 kB SMN1 promoter fragment is obtained by restriction of p4.0T with BglII and SacII. A 3.4 kB SMN2 promoter fragment is obtained by restriction of p3.4C with KpnI and SacII; a 300 bp BglII/KpnI fragment from p4.0T is then added to the 3.4 kB SMN2 promoter fragment to yield the final 3.7 kB SMN2 promoter fragment.
The modified SMN1 and SMN2 firefly luciferase splicing reporters are obtained by removing 4 kB of intron 6 in the original reporter system by restriction with SmaI/Swa followed by religation of the reporter. A 4 kB luciferase splicing reporter is then obtaind by digestion with XhoI and NotI.
Ths SMN cDNA fragment is obtained by generating the productof a polymerase chain reaction (PCR) on a cDNA preparation using […] (SEQ ID NO:3) as the forward primer and Tatctcgagtggtccagaaggaaatggaggcagcc (SEQ ID NO:4) as the reverse primer. The PCR product is then digested with XhoI and SacII. […]

Row | Structure (SMILES) | Curve Class | Increased SMN2 activity [%]
1 | NC(=O)C1CCN(c2nc(-c3cccc(Cl)c3)cs2)CC1 [Example 34, 1-(4-(3-Chlorophenyl)Thiazol-2-yl)Piperidine-4-Carboxamide] | 2.2 | 53.23
2 | CN(C)c1cccc(-c2ccnc(N3CCC(C(N)=O)CC3)n2)c1 [Example 90, 1-(4-(3-(Dimethylamino)Phenyl)Pyrimidin-2-yl)Piperidine-4-Carboxamide] | 1.1 | 446.3
3 | CC(C)COc1ccc(-c2csc(N3CCC(C(N)=O)CC3)n2)cc1 [Example 106, 1-(4-(4-Isobutoxyphenyl)Thiazol-2-yl)Piperidine-4-Carboxamide] | 1.2 | 54
4 | NC(=O)C1CCN(c2nc(-c3ccc(Cl)cc3)cs2)CC1 [Example 20, 1-(4-(4-Chlorophenyl)Thiazol-2-yl)Piperidine-4-Carboxamide] | 1.1 | 380.6
5 | COc1ccc(-c2csc(N3CCC(C(N)=O)CC3)n2)cc1 [Example 25, 1-(4-(4-Methoxyphenyl)Thiazol-2-yl)Piperidine-4-Carboxamide] | 2.1 | 209.1
6 | CCOC(=O)C1CCN(c2nc(-c3ccc(Br)cc3)cs2)CC1 [Example 44, Ethyl 1-(4-(4-Bromophenyl)Thiazol-2-yl)Piperidine-4-Carboxylate] | 1.1 | 550.3
7 | NC(=O)C1CCN(c2nc(-c3ccc4c(c3)OCCCO4)cs2)CC1 [Example 99, 1-(4-(3,4-Dihydro-2H-Benzo[B][1,4]Dioxepin-7-yl)Thiazol-2-yl)Piperidine-4-Carboxamide] | 1.1 | 443.2
8 | NC(=O)C1CCN(c2nnc(-c3ccc4c(c3)OCCCO4)s2)CC1 [Example 130, 1-(5-(3,4-Dihydro-2H-Benzo[B][1,4]Dioxepin-7-yl)-1,3,4-Thiadiazol-2-yl)Piperidine-4-Carboxamide] | 1.1 | 257.1
9 | Cc1ccc(-c2ccnc(N3CCC(C(N)=O)CC3)n2)cc1 [Example 126, 1-(4-P-Tolylpyrimidin-2-yl)Piperidine-4-Carboxamide] | 1.1 | 444.6
10 | Cc1cccc(-c2csc(N3CCC(C(N)=O)CC3)n2)c1 [Example 46, 1-(4-M-Tolylthiazol-2-yl)Piperidine-4-Carboxamide] | 2.1 | 187.4
11 | CC(C)Oc1cccc(-c2ccnc(N3CCC(C(N)=O)CC3)n2)c1 [Example 127, 1-(4-(3-Isopropoxyphenyl)Pyrimidin-2-yl)Piperidine-4-Carboxamide] | 1.1 | 298.225
12 | NC(=O)C1CCN(c2nc(-c3ccc(C(F)(F)F)cc3)cs2)CC1 [Example 22, 1-(4-(4-Trifluoromethylphenyl)Thiazol-2-yl)Piperidine-4-Carboxamide] | 1.1 | 386.1
13 | Cc1ccc(-c2csc(N3CCC(C(N)=O)CC3)n2)cc1 [Example 21, 1-(4-(4-Methylphenyl)Thiazol-2-yl)Piperidine-4-Carboxamide] | 1.1 | 439.1
14 | NC(=O)C1CCN(c2nc(-c3ccc4ccccc4c3)cs2)CC1 [Example 56, 1-(4-(Naphthalen-2-yl)Thiazol-2-yl)Piperidine-4-Carboxamide] | 1.1 | 162
15 | CC(C)Oc1cccc(-c2csc(N3CCC(C(N)=O)CC3)n2)c1 [Example 107, 1-(4(3-Isopropoxyphenyl)Thiazol-2-yl)Piperidine-4-Carboxamide] | 1.1 | 605.6
16 | CN(C)c1cccc(-c2cnc(N3CCC(C(N)=O)CC3)s2)c1 [Example 88, 1-(5-(3-(Dimethylamino)Phenyl)Thiazol-2-yl)Piperidine-4-Carboxamide] | 1.1 | 550.44
17 | CN(C)c1cccc(-c2nc(N3CCC(C(N)=O)CC3)ncc2F)c1 [Example 149, 1-(4-(3-(Dimethylamino)Phenyl)-5-Fluoropyrimidin-2-yl)Piperidine-4-Carboxamide] | 1.1 | 373.2
18 | COc1cc(-c2csc(N3CCC(C(N)=O)CC3)n2)cc(OC)c1OC [Example 84, 1-(4-(3,4,5-Trimethoxyphenyl)Thiazol-2-yl)Piperidine-4-Carboxamide] | 2.2 | 73.33
19 | NC(=O)C1CCN(c2ncc(-c3cccc(F)c3)s2)CC1 [Example 121, 1-(5-(3-Fluorophenyl)Thiazol-2-yl)Piperidine-4-Carboxamide] | 1.1 | 601.5
20 | NC(=O)C1CCN(c2nc(-c3cccc(C(F)(F)F)c3)cs2)CC1 [Example 81, 1-(4-(3-(Trifluoromethyl)Phenyl)Thiazol-2-yl)Piperidine-4-Carboxamide] | 2.2 | 100
21 | CN(C)C(=O)c1cccc(-c2csc(N3CCC(C(N)=O)CC3)n2)c1 [Example 62, 1-(4-(3-(Dimethylcarbamoyl)Phenyl)Thiazol-2-yl)Piperidine-4-Carboxamide] | 2.2 | 51.18
22 | NC(=O)C1CCN(c2nc(-c3ccccc3)cs2)CC1 [Example 30, 1-(4-Phenylthiazol-2-yl)Piperidine-4-Carboxamide] | 1.1 | 166.6
23 | NC(=O)C1CCN(c2ncc(-c3cccc(N4CCCC4)c3)s2)CC1 [Example 137, 1-(5-(3-(Pyrrolidin-1-yl)Phenyl)Thiazol-2-yl)Piperidine-4-Carboxamide] | 1.1 | 685.1
24 | O=C(C1CCN(c2nc(-c3ccc(Br)cc3)cs2)CC1)N1CCOCC1 [Example 74, (1-(4-(4-Bromophenyl)Thiazol-2-yl)Piperidin-4-yl)(Morpholino)Methanone] | 2.2 | 77.48
25 | NC(=O)N1CCN(c2nc(-c3ccc(Br)cc3)cs2)CC1 [Example 118, 4-(4-(4-Bromophenyl)Thiazol-2-yl)Piperazine-1-Carboxamide] | 2.1 | 88.79
26 | CC(C)(C)c1ccc(-c2csc(N3CCC(C(N)=O)CC3)n2)cc1 [Example 98, 1-(4-(4-Tert-Butylphenyl)Thiazol-2-yl)Piperidine-4-Carboxamide] | 1.1 | 243.3
27 | CCOC(=O)C1CCN(c2ncc(-c3ccc4c(c3)OCCCO4)s2)CC1 [Example 146, Ethyl 1-(5-(3,4-Dihydro-2H-Benzo[B][1,4]Dioxepin-7-yl)Thiazol-2-yl)Piperidine-4-Carboxylate] | 1.1 | 319.6
28 | NC(=O)C1CCN(c2nc(-c3ccc(Oc4ccccc4)cc3)cs2)CC1 [Example 92, 1-(4-(4-Phenoxyphenyl)Thiazol-2-yl)Piperidine-4-Carboxamide] | 1.1 | 240
29 | NC(=O)C1CCN(c2nc(-c3cccs3)cs2)CC1 [Example 51, 1-(4-(Thiophen-2-yl)Thiazol-2-yl)Piperidine-4-Carboxamide] | 2.2 | 50.93
